{
  "source": "paper PMC11861483",
  "about": "“Genetic characterization of the AHAS mutant line K4 with resistance to AHAS-inhibitor herbicides in rapeseed (Brassica napus L.)” (Stress Biology, 2025)",
  "target": "T1, BnAHAS3 (ZS9) (Brassica napus, UniProt P27819)",
  "T1 construct": "native, isolated and purified from total protein of ZS9 seedlings; AHAS on SDS-PAGE about 58-66 kD; immobilised on CM5 chip",
  "T1 sequence (P27819 70-652)": "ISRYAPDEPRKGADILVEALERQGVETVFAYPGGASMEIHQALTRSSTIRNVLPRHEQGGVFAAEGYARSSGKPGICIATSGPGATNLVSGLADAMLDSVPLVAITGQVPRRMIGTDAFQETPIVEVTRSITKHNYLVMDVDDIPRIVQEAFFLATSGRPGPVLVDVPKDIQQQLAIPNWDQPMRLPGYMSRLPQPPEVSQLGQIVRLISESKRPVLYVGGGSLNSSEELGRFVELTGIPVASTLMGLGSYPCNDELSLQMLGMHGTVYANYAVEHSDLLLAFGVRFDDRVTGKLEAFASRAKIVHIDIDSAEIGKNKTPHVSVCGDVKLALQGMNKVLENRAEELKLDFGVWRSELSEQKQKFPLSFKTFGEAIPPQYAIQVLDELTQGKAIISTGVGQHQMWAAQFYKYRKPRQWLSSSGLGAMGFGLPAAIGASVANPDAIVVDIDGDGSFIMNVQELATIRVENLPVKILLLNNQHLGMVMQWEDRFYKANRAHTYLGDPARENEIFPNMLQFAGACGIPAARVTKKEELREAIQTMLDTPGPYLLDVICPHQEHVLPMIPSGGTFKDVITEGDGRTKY",
  "assay": "surface plasmon resonance (Biacore T200, CM5 chip), kinetic fit kd/ka",
  "format": "binding",
  "conditions": "read-out: Tribenuron-methyl / KD",
  "excerpt": "surface plasmon resonance (Biacore T200, CM5 chip), kinetic fit kd/ka on BnAHAS3 (ZS9)",
  "data": [
    {"compound": "COC(=O)c1ccccc1S(=O)(=O)NC(=O)N(C)c1nc(C)nc(OC)n1", "note": "[tribenuron-methyl]", "values": [
      {"measurement": "Kd", "value": 33, "unit": "µM"}
    ]}
  ]
}
